From ChEMBL document CHEMBL5131414, “Design, synthesis, and evaluation of phenylpiperazine-phenylacetate derivatives as rapid recovery hypnotic agents” (Bioorg Med Chem Lett, 2022) come the findings set out here.

Series [1] in a line: Lipophilicity, logP of the compound. It is filed as physicochemical. To be noted: octanol/water.
Series [2] deals with Mus musculus. The experiment in a line: Anesthetic activity in mouse assessed as concentration required to induce hypnotic effect. It is filed as functional, organism-based.
Series [3] is described as follows: Toxicity in mouse assessed as lethal dose. To be noted: in vivo.
Series [4] can be described thus: Therapeutic index, ratio of LD50 for toxicity in mouse to HD50 for anesthetic activity in mouse. It is filed as organism-based. The note with it: in vivo, read-out: TI.
Series [5] deals with GABA-A receptor; anion channel (Homo sapiens) (UniProt P14867+P47870+P18507+P28472+P48169+Q99928+Q9UN88+P34903+O00591+O14764+Q8N1C3+P18505+P78334+P47869+P31644+Q16445). The experiment in a line: Inhibition of GABAA receptor (unknown origin) at 50 uM by radioligand receptor binding assay relative to control. It is filed as protein-complex assay.
Series [6] deals with Mus musculus. The series can be described thus: Anesthetic activity in mouse assessed as onset time. It is filed as functional.
Series [7] relates to Mus musculus. The experiment in a line: Anesthetic activity in mouse assessed as time duration of loss of righting reflex. Type of series: functional.
Series [8] deals with Mus musculus. The experiment in a line: Anesthetic activity in mouse assessed as time to walk at 2 times of HD50 concentration. Type of series: functional.
Series [9] concerns Rattus norvegicus. The series can be described thus: Anesthetic activity in rat assessed as concentration required to induce hypnotic effect. Type of series: functional, organism-based.
Series [10] in a line: Toxicity in rat assessed as lethal dose. To be noted: in vivo.
Series [11] in a line: Therapeutic index, ratio of LD50 for toxicity in rat to HD50 for anesthetic activity in rat. The note with it: read-out: TI.
Series [12] has as its system Oryctolagus cuniculus. The series can be described thus: Anesthetic activity in rabbit assessed as concentration required to induce hypnotic effect. It is filed as functional, organism-based.
A short description of series [13]: Toxicity in rabbit assessed as lethal dose. More on the design: species or system Oryctolagus cuniculus. The note with it: in vivo.
Series [14] in a line: Therapeutic index, ratio of LD50 for toxicity in rabbit to HD50 for anesthetic activity in rabbit. To be noted: read-out: TI.
For series [15], the system named is Rattus norvegicus. The experiment in a line: Anesthetic activity in rat assessed as onset time. Type of series: functional.
The test system of series [16] is Rattus norvegicus. The experiment in a line: Anesthetic activity in rat assessed as time duration of loss of righting reflex. Type of series: functional.
In series [17] the test system is Rattus norvegicus. The experiment in a line: Anesthetic activity in rat assessed as time to walk at 2 times of HD50 concentration. It is filed as functional.
The subject of series [18] is Oryctolagus cuniculus. The series can be described thus: Anesthetic activity in rabbit assessed as onset time. Type of series: functional.
Series [19] concerns Oryctolagus cuniculus. The series can be described thus: Anesthetic activity in rabbit assessed as time duration of loss of righting reflex. It is filed as functional.
Series [20] concerns Oryctolagus cuniculus. The experiment in a line: Anesthetic activity in rabbit assessed as time to walk at 2 times of HD50 concentration. It is filed as functional.

By logP is commonly meant the decadic logarithm of the partition coefficient of the neutral form, usually between octanol and water. Broadly, the LD50 is the dose at which mortality reaches 50%. A word on the inhibition: it is how much of the control response was suppressed. A higher inhibition goes with a strong effect.

The structures appear in SMILES notation.

As for `CCOc1cc(CC(=O)OCC(F)(F)F)ccc1OCC(=O)N1CCN(c2cccc(C)c2C)CC1`, the logP in series [1] turned out to be 4.7. The “HD50 (median hypnotic dose)” value in the series on Mus musculus [2] was 35.6 mg/kg. Moreover, the LD50 in series [3] amounted to 227 mg/kg. Also, the selectivity ratio in series [4] was 6.4. Also, the inhibition in series [5] came out at 32.1%.
On the same counts, the results for `CCOc1cc(CC(=O)OC(C)C)ccc1OCC(=O)N1CCN(c2cccc(C(F)(F)F)c2)CC1` are 4.4, 31.6 mg/kg, 163 mg/kg, 5.1 and 54.7%.
For `COc1cc(CC(=O)OCC(F)(F)F)ccc1OCC(=O)N1CCN(c2cccc(Cl)c2Cl)CC1`, in that order: 4.6, 34.5 mg/kg, 225 mg/kg, 6.5 and 39.4%.
`CCOc1cc(CC(=O)OC(C)C)ccc1OCC(=O)N1CCN(c2cccc(C)c2C)CC1`: in series [1], the logP came out at 4.4. The “HD50 (median hypnotic dose)” value in the series on Mus musculus [2] turned out to be 31.4 mg/kg. Besides, the LD50 in series [3] turned out to be 200 mg/kg. Also, in series [4], the selectivity ratio was found to be 6.4. Moreover, the inhibition in series [5] came out at 42.7%.
For `CCOc1cc(CC(=O)OCC(F)(F)F)ccc1OCC(=O)N1CCN(c2cccc(C(F)(F)F)c2)CC1`, in that order: 4.7, 31.2 mg/kg, 198 mg/kg, 6.3 and 38.8%.
For the compound `CCOc1cc(CC(=O)OCC(F)(F)F)ccc1OCC(=O)N1CCN(c2ccccc2)CC1`, the logP in [1] turned out to be 3.8. Also, in the series on Mus musculus [2], the “HD50 (median hypnotic dose)” value was determined as 24.8 mg/kg. In series [3], the LD50 stood at 193 mg/kg. Further, the selectivity ratio in [4] was 7.8. The Time was determined as 7.1 s in the series on Mus musculus [6], 76.5 s with Mus musculus [7] and 44.9 s in the series with Mus musculus [8]. This compound also had an inhibition in series [5] of 70.6%.
Compound `CCCOC(=O)Cc1ccc(OCC(=O)N2CCN(c3cccc(C)c3C)CC2)c(OCC)c1` gave a logP in series [1] of 4.6. Also, in the series on Mus musculus [2], the “HD50 (median hypnotic dose)” value is 42.5 mg/kg. Further, in [3], the LD50 was 269 mg/kg. Moreover, the selectivity ratio in series [4] stood at 6.3. The compound also displayed an inhibition in series [5] of 45.5%.
For `CCOc1cc(CC(=O)OC(C)C)ccc1OCC(=O)N1CCN(c2cccc(Cl)c2Cl)CC1`, in that order: 4.6, 39.5 mg/kg, 254 mg/kg, 6.4 and 35.9%.
On the same counts, the results for `CCCOC(=O)Cc1ccc(OCC(=O)N2CCN(c3cccc(C(F)(F)F)c3)CC2)c(OCC)c1` are 4.5, 33.6 mg/kg, 176 mg/kg, 5.2 and 49.6%.
For `CCCOC(=O)Cc1ccc(OCC(=O)N2CCN(c3ccccc3)CC2)c(OC)c1`, in that order: 3.3, 33.2 mg/kg, 190 mg/kg, 5.7 and 35.6%.
The compound `COc1cc(CC(=O)OCC(F)(F)F)ccc1OCC(=O)N1CCN(c2ccccc2)CC1` returned a logP in series [1] of 3.4. The “HD50 (median hypnotic dose)” value in the series with Mus musculus [2] amounted to 30.8 mg/kg. Also, the LD50 in [3] was 200 mg/kg. In series [4], the selectivity ratio was determined as 6.5. Further, the inhibition in series [5] came to 29.9%.
For `CCOc1cc(CC(=O)OC(C)C)ccc1OCC(=O)N1CCN(c2ccccc2)CC1`, in that order: 3.5, 36.8 mg/kg, 265 mg/kg, 7.2 and 54.2%.
Compound `CCCOC(=O)Cc1ccc(OCC(=O)N(CC)CC)c(OC)c1` [PROPANIDID] came in with a logP in series [1] of 2.1. The selectivity ratio in series [4] was 5.6; in [11], 9.6; in series [14] it was 14.7. Moreover, the Time is listed as 6.7 s in the series on Mus musculus [6]; 89.6 s in the series with Mus musculus [7]; 56.3 s in the series with Mus musculus [8]; 16.3 s in the series on Rattus norvegicus [15]; 93.3 s in the series with Rattus norvegicus [16]; 58.7 s with Rattus norvegicus [17]. Moreover, the Time with Oryctolagus cuniculus [18] is 22.6 s; in the series with Oryctolagus cuniculus [19] it was 265.4 s; with Oryctolagus cuniculus [20] it was 124.5 s. The EC50 in the series on Rattus norvegicus [9] is 8.4 mg/kg; in the series with Oryctolagus cuniculus [12] it was 5.1 mg/kg. The LD50 in series [10] was 81 mg/kg; in [13], 75.4 mg/kg. In series [5], the inhibition was determined as 83.2%.
Consider `CCOC(=O)Cc1ccc(OCC(=O)N2CCN(c3cccc(Cl)c3Cl)CC2)c(OCC)c1`, for which the logP in series [1] was 4.3. The “HD50 (median hypnotic dose)” value in the series on Mus musculus [2] turned out to be 36.5 mg/kg. Besides, in [3], the LD50 came to 237 mg/kg. Also, in series [4], the selectivity ratio worked out at 6.5. This compound also displayed an inhibition in series [5] of 42.1%.
As to `CCOC(=O)Cc1ccc(OCC(=O)N2CCN(c3cccc(C(F)(F)F)c3)CC2)c(OCC)c1`, in series [1], the logP is 4.1. In addition, the “HD50 (median hypnotic dose)” value in the series with Mus musculus [2] stood at 42.5 mg/kg. Besides, in series [3], the LD50 worked out at 289 mg/kg. The selectivity ratio in [4] came out at 6.8. The compound also returned an inhibition in series [5] of 44.4%.
On the same counts, the results for `CCOC(=O)Cc1ccc(OCC(=O)N2CCN(c3cccc(C)c3C)CC2)c(OCC)c1` are 4.1, 32.2 mg/kg, 209 mg/kg, 6.5 and 38.7%.
On the same counts, the results for `CCOC(=O)Cc1ccc(OCC(=O)N2CCN(c3ccccc3)CC2)c(OCC)c1` are 3.1, 30.6 mg/kg, 208 mg/kg, 6.8 and 22.1%.
In turn, `CCCOC(=O)Cc1ccc(OCC(=O)N(CC)CC)c(OCC)c1` [AZD-3043] came in with a logP in series [1] of 2.5. Also, in the series on Mus musculus [2], the “HD50 (median hypnotic dose)” value came out at 17.6 mg/kg. Also, the selectivity ratio in series [4] amounted to 6; in series [11], 10.1; in series [14], 16.8. Further, the Time turned out to be 5.6 s with Mus musculus [6]; 63.8 s in the series on Mus musculus [7]; 46.7 s with Mus musculus [8]; 12.4 s in the series with Rattus norvegicus [15]; 74.2 s in the series with Rattus norvegicus [16]; 38.4 s in the series on Rattus norvegicus [17]. The values for the Time in the series with Oryctolagus cuniculus [18], in the series with Oryctolagus cuniculus [19] and in the series on Oryctolagus cuniculus [20] were 19.8 s, 221.6 s and 89.6 s, respectively. The EC50 amounted to 7.9 mg/kg with Rattus norvegicus [9] and 4.6 mg/kg with Oryctolagus cuniculus [12]. In addition, the LD50 in series [10] was 79.8 mg/kg; in series [13] it was 77.3 mg/kg. The same compound yielded an inhibition in series [5] of 70.2%.
`CCCOC(=O)Cc1ccc(OCC(=O)N2CCN(c3cccc(Cl)c3Cl)CC2)c(OCC)c1` came in with a logP in series [1] of 4.7. For the same compound, the “HD50 (median hypnotic dose)” value in the series with Mus musculus [2] was found to be 38.6 mg/kg. In [3], the LD50 came out at 201 mg/kg. Besides, the selectivity ratio in [4] amounted to 5.2. In addition, the inhibition in series [5] is 33.3%.
